The results in this text go back to paper PMC4490744, “Protective effect of a Protein Epitope Mimetic CCR10 antagonist, POL7085, in a model of allergic eosinophilic airway inflammation” (Respiratory Research, 2015).

The subject of assay [1] is OVA-sensitized and challenged Balb/c mice. Briefly: Lung histology (haematoxylin-eosin), OVA model. The class given is in vivo, mouse. The settings on record: POL7085 15 mg/kg or DEX 1 mg/kg i.n. The protocol:
Lung tissues were fixed in 4 % paraformaldehyde and paraffin-embedded. 6 μm sections were cut, mounted on Superfrost glass slides (Fischer Scientific) and stained with haematoxylin-eosin for light microscopy morphological analysis or periodic acid-Schiff (PAS) staining to determine the extent of mucus production. The area of epithelial cells containing the mucus were measured and expressed relative to the total bronchus perimeter.

The test system is the same in assay [2]. The assay can be described thus: BAL total and differential cell counts, OVA model. The assay is classed as in vivo, mouse. Conditions: 24 h after last challenge, POL7085 15 mg/kg or DEX 1 mg/kg i.n. once daily 1 h before challenge, p < 0.001. The method, then:
(§1) Bronchoalveolar lavage (BAL) was performed 24 h after the last OVA challenge as previously described. Mice were anaesthetized i.p. (ketamine 150 mg/kg, xylazine 10 mg/kg). A plastic cannula was inserted in the exposed trachea, and airways were washed with 0.5 mL of 0.9 % NaCl (saline) injected with a 1 mL syringe. This procedure was performed ten times. The initial concentrated supernatant of the two first lavages (2 × 0.5 mL administered, approx. 0.5 mL recovered) was collected for cytokine measurements. The remainder of the BALF was centrifuged (600 g for 5 min, 4 °C), and cell pellets pooled. After lysis of erythrocytes with distilled water followed by osmotic re-equilibration and centrifugation, the cell pellet was suspended in 500 μL of saline and total cell counted on a haemocytometer chamber (Neubauer, PRECISS®). Cells were cytocentrifuged at 700 rpm for 10 min (Cytospin 4, Thermo Fischer Scientific), and stained with Diff-Quick® (Merck) for differential cell counts performed on at least 400 cells.

Assay [3] has the same test system. The assay can be described thus: Colorimetric assay of lung mucus, OVA model. The class given is in vivo, mouse. The protocol: Mucus was measured in lung homogenate by a mucus colorimetric assay: 100 μL samples were mixed with 20 μL acid mucus reagent (0.2 % periodic acid) incubated for 1 h at 37 °C, then 20 μL mucus dye reagent (pararosaniline 1 %, 10 N hydrochloric acid 1 %) was added and samples were incubated for a further 30 min at 37 °C, before optical density measurement at 555 nm.

Assay [4] has the same test system. The assay can be described thus: Lung homogenate cytokines by Milliplex, OVA model. The assay is classed as in vivo, mouse. The settings on record: POL7085 7.5 and 15 mg/kg or DEX 1 mg/kg i.n. The method, then: (§2) IL-5, IFN-γ (BD Pharmingen), CCL28 (R&D system) ELISA kits and Th17 Milliplex® (Millipore) were used according to the manufacturer’s instructions. For BALF recovered 24 h after the last OVA challenge, IL-5 and IFN-γ were quantified by ELISA. For lung homogenate, concentrations of IL-4, IL-5, IL-13, IL-17a and IL-17f were quantified by Milliplex® in the supernatants obtained after lung tissue was homogenised with an UltraTurax® and centrifuged at 10,000 g for 10 min at 4 °C.

Assay [5] has the same test system. Briefly: Lung tissue CCL28 by ELISA, OVA model. The class given is in vivo, mouse. Conditions: POL7085 p < 0.05. The method, then:
as §2

Assay [6] shares this test system. Briefly: Colorimetric assay of lung collagen, OVA model. Conditions: lung homogenate, POL7085 p < 0.05, DEX 1 mg/kg p < 0.001.
Assay [7] shares this test system. Briefly: Airway responsiveness to methacholine, whole body barometric plethysmography. The class given is in vivo, mouse. The settings on record: DEX 1 mg/kg i.n., p < 0.001. The protocol:
Airway responsiveness to aerosolized methacholine (MCh; Sigma-Aldrich, A2251) was measured in conscious mice on day 22 (24 h after the last OVA challenge) by whole body barometric plethysmography (Emka Technologies). Mice were acclimatized in the plethysmograph chamber for 30 min until a stable baseline was obtained, and then exposed to aerosolized saline for 30 s as a control. Mice were then challenged every 20 min with aerosolized MCh at increasing concentrations (0.05, 0.1, 0.2 and 0.3 M) for 30 s, and the enhanced pause (PenH) was recorded for 5 min and used as an index of airway obstruction.

Assay [8] shares this test system. The assay can be described thus: Lung CCR3 mRNA by RT-qPCR, OVA model. The class given is in vivo, mouse. The settings on record: 2^ΔΔCt, not significant. The method, then:
All procedures were performed according to the manufacturer’s instructions. Lung tissue was homogenised in a Fastprep®, and total RNA extracted with Tri-Reagent® (1 mL/left lung; Euromedex) and purified with mini RNeasy® Kit (Qiagen). RNA pellets were suspended in nuclease-free water (DEPC). RNA concentration and quality were determined in each preparation with a Nanodrop® spectrophotometer.
Reverse transcription was performed on 10 μg/mL of total RNA by the High Capacity cDNA Archive kit® (Life Technologies™) for 10 min at 25 °C and 2 h at 37 °C, and cDNAs were stored at −80 °C until use. Quantitative PCR was performed by real-time fluorescent PCR with TaqMan® Gene Expression Assay in 96 well plate format (Life Technologies™, ABI7000) using TaqMan® Gene Expression Assay primers (Life Technologies™ for HPRT1 (Mm01545399_m1), CCR10 (Mm01292449_m1), CCL28 (Mm00445039_m1) and CCR3 (Mm00515543_s1). To analyse the low expression of CCR10, CCL28 and CCR3, a preamplification was performed with TaqMan® PreAmp Master Mix (Life Technologies™) and TaqMan® Gene Expression Assay (10 min at 95 °C followed by 14 cycles: 15 s at 95 °C and 4 min at 60 °C). Preamplified cDNAs were stored at −80 °C until use and diluted 1/20 with 1X TE buffer for use. […]

For assay [9] the test system is unchanged. The assay can be described thus: Immunohistochemistry of CCR10 in the lung, OVA model. The class given is in vivo, mouse. Conditions: CCR10 immunolabelling. The protocol:
Sections (3 μm) of lung tissue were cut, mounted, placed in Sequenza® immunostaining with Coverplate™ (Thermo Scientific Shandon), and antigen retrieval was performed with proteinase K in Tris-EDTA buffer (pH 8; Fluka) for 35 min at 37 °C. The endogenous enzyme was blocked with Dual Endogenous Enzyme Block (Dako Cytomation) and slides were incubated overnight at 4 °C with the primary antibody 1/1000 (goat anti-mouse CCR10 antibody; Capralogics), followed by 30 min at RT with the secondary rabbit anti-goat antibody (Vector) and 30 min at RT with extravidin peroxidase (Sigma-Aldrich).

The test system is the same in assay [10]. The assay can be described thus: Plasma OVA-specific IgE by ELISA, OVA model. The assay is classed as in vivo, mouse. The settings on record: D22, ELISA. The method, then:
Plasma IgE levels were determined by ELISA. Microtiter plates were coated overnight at 4 °C with the capture antibody, anti-mouse IgE at 2 μg/well in carbonate buffer, pH 9.5 (BD Pharmingen, clone R35-118).

Assay [11] has the same test system. The assay can be described thus: BAL cytokines by ELISA, OVA model. The class given is in vivo, mouse. Conditions: 24 h after last challenge. The method, then:
as §1, with “Cells were cytocentrifuged at 700 rpm for 10 min (Cytospin 4, Thermo Fischer Scientific), and stained with Diff-Quick® (Merck) for differential cell counts performed on at least 400 cells.” left out
as §2

As to `C[C@@H]1C[C@H]2[C@@H]3CCC4=CC(=O)C=C[C@]4(C)[C@@]3(F)[C@@H](O)C[C@]2(C)[C@@]1(O)C(=O)CO` [DEX, dexamethasone], the “effect on peribronchial and perivascular inflammatory cell infiltrates in lung” value in assay [1] is on record as “substantial reduction of these cellular infiltrates”. In addition, in [2], the “inhibition of BAL eosinophil recruitment” value is 87%, the “inhibition of BAL lymphocyte recruitment” value is recorded as 86% and the “inhibition of BAL neutrophil recruitment” value was determined as 90%. The “effect on lung mucus (colorimetric assay, lung homogenate)” value in assay [3] is given as “trend towards reduction of mucus levels (ns)”. Besides, the “effect on levels of IL-4, IL-5 and IL-13 in lung homogenate” value in [4] was “significantly decreased”. Moreover, the “effect on lung CCL28 concentration” value in assay [5] is on record as “had no effect on CCL28 levels”. In [6], the “reduction of lung collagen levels” value stood at 64%. In addition, the “effect on airway responses to MCh” value in assay [7] is given as “significantly decreased airway responses to MCh”. The “reduction of OVA-induced lung CCR3 mRNA expression” value in assay [8] was determined as 45%. In addition, the “infiltrating inflammatory cells expressing CCR10” value in assay [9] was “clearly reduced”. The “effect on plasma OVA-specific IgE levels” value in assay [10] is recorded as “a slight decrease, although non significant”. Moreover, the “effect on IL-5 level in BAL” value in [11] is given as “significantly decreased”.
